Data reported in the NIST ThermoML archive (doi:10.1021/je4008052).
“And” between values parts separate entries of the source, which are not always exact repeats. Identical values can stand only once.

Conditions: Liquid, Gas chromatography

CCCCCCCC/C=C/CCCCCCCCCCCCC [(E)-9-tricosene]
Conditions | vapor or sublimation pressure
298.15 K | 1.041e-07 kPa and 1.013e-07 kPa
308.15 K | 4.621e-07 kPa and 4.52e-07 kPa
318.15 K | 1.828e-06 kPa and 1.795e-06 kPa
328.15 K | 6.514e-06 kPa and 6.421e-06 kPa
338.15 K | 2.089e-05 kPa and 2.112e-05 kPa
358.15 K | 0.0001722 kPa and 0.000173 kPa
368.15 K | 0.0004428 kPa and 0.0004438 kPa
378.15 K | 0.001067 kPa
388.15 K | 0.002425 kPa and 0.002419 kPa
398.15 K | 0.005195 kPa and 0.00522 kPa
408.15 K | 0.01062 kPa and 0.01069 kPa
418.15 K | 0.02075 kPa and 0.02093 kPa
428.15 K | 0.0389 kPa and 0.0393 kPa
438.15 K | 0.07017 kPa and 0.07101 kPa
448.15 K | 0.1222 kPa and 0.1238 kPa
458.15 K | 0.2059 kPa and 0.209 kPa
468.15 K | 0.3368 kPa and 0.3423 kPa
478.15 K | 0.5356 kPa and 0.5451 kPa
488.15 K | 0.83 kPa and 0.8458 kPa
498.15 K | 1.256 kPa and 1.281 kPa
508.15 K | 1.858 kPa and 1.898 kPa
518.15 K | 2.693 kPa and 2.753 kPa
528.15 K | 3.828 kPa and 3.918 kPa
538.15 K | 5.344 kPa and 5.475 kPa
548.15 K | 7.336 kPa and 7.523 kPa
558.15 K | 9.914 kPa and 10.18 kPa
568.15 K | 13.2 kPa and 13.56 kPa
578.15 K | 17.34 kPa and 17.82 kPa
588.15 K | 22.48 kPa and 23.12 kPa
598.15 K | 28.79 kPa and 29.64 kPa
608.15 K | 36.46 kPa and 37.56 kPa
618.15 K | 45.67 kPa and 47.09 kPa
628.15 K | 56.64 kPa and 58.44 kPa
638.15 K | 69.59 kPa and 71.83 kPa
648.15 K | 84.72 kPa and 87.52 kPa
655 K | 99.7 kPa
656 K | 98.29 kPa

CCCCCCCC/C=C\CCCCCCCCCCCCC [(Z)-tricos-9-ene]
Conditions | vapor or sublimation pressure
298.15 K | 1.146e-07 kPa and 1.205e-07 kPa
308.15 K | 5.055e-07 kPa and 5.324e-07 kPa
318.15 K | 1.987e-06 kPa and 2.096e-06 kPa
328.15 K | 7.042e-06 kPa and 7.434e-06 kPa
358.15 K | 0.0001951 kPa and 0.0001844 kPa
368.15 K | 0.0004985 kPa and 0.0004708 kPa
378.15 K | 0.001195 kPa and 0.001128 kPa
388.15 K | 0.0027 kPa and 0.002546 kPa
398.15 K | 0.00545 kPa and 0.005782 kPa
408.15 K | 0.01111 kPa and 0.01179 kPa
418.15 K | 0.02163 kPa and 0.02297 kPa
428.15 K | 0.04041 kPa and 0.04294 kPa
438.15 K | 0.07269 kPa and 0.07727 kPa
448.15 K | 0.1262 kPa and 0.1343 kPa
458.15 K | 0.2121 kPa and 0.2258 kPa
468.15 K | 0.346 kPa and 0.3684 kPa
478.15 K | 0.5489 kPa and 0.5848 kPa
488.15 K | 0.8487 kPa and 0.9046 kPa
498.15 K | 1.281 kPa and 1.366 kPa
508.15 K | 1.891 kPa and 2.018 kPa
518.15 K | 2.735 kPa and 2.92 kPa
528.15 K | 3.88 kPa and 4.144 kPa
538.15 K | 5.406 kPa and 5.777 kPa
548.15 K | 7.406 kPa and 7.919 kPa
558.15 K | 9.989 kPa and 10.69 kPa
568.15 K | 13.28 kPa and 14.21 kPa
578.15 K | 17.41 kPa and 18.64 kPa
588.15 K | 22.53 kPa and 24.14 kPa
598.15 K | 28.81 kPa and 30.88 kPa
608.15 K | 36.42 kPa and 39.06 kPa
618.15 K | 45.55 kPa and 48.88 kPa
628.15 K | 56.41 kPa and 60.56 kPa
638.15 K | 69.19 kPa and 74.32 kPa
648.15 K | 84.12 kPa and 90.4 kPa
656 K | 104.81 kPa
658.15 K | 101.4 kPa
